Measured values reported in patent publication EP4667483A1, “HUMAN TRANSFERRIN RECEPTOR-BINDING PEPTIDE” (JCR Pharmaceuticals Co., Ltd., priority 2023, dated 2024).
Numbered stars: 1 amine (or outer) side, 2 acyl side, 3 side chain; on linkers, the order of the positions; unused ones are H or OH. Bridge positions count the residues as written; N and C are the ends. Square brackets hold non-standard residues; d marks the D form. Peptide text beside a SMILES is read from it. * marks the point of attachment. Trp(1-CH2COOH) = N[C@@H](Cc1cn(CC(=O)O)c2ccccc12)C(=O)O; CH2CON(CH2CH2)2NCH2COOH = O=C(O)CN1CCN(C(=O)C*)CC1; NMePhe(4-COOH) = CN[C@@H](Cc1ccc(C(=O)O)cc1)C(=O)O; X1 = O=C([C@H](Cc1cccc(C(=O)[*:3])c1)N[*:1])[*:2]; Nle(6-morpholino) = N[C@@H](CCCCN1CCOCC1)C(=O)O; Phe(3-COOH) = N[C@@H](Cc1cccc(C(=O)O)c1)C(=O)O; NH(CH2CH2O)8Me = COCCOCCOCCOCCOCCOCCOCCOCCN*; NMePhe(3-Cl) = CN[C@@H](Cc1cccc(Cl)c1)C(=O)O; 3Pal(6-NH2) = Nc1ccc(C[C@H](N)C(=O)O)cn1; NMeW = CN[C@@H](Cc1c[nH]c2ccccc12)C(=O)O; Lys(N3) = [N-]=[N+]=NCCCC[C@H](N)C(=O)O; Tyr(3-Me) = Cc1cc(C[C@H](N)C(=O)O)ccc1O; NMeY = CN[C@@H](Cc1ccc(O)cc1)C(=O)O; Nva(3-Et) = CCC(CC)[C@H](N)C(=O)O; NMeF = CN[C@@H](Cc1ccccc1)C(=O)O; 4Pal = N[C@@H](Cc1ccncc1)C(=O)O; PEG4 = NCCOCCOCCOCCOCCC(=O)O; Carboxymethyl = O=C(O)C*

What was measured:
[1] = target: T1, human transferrin receptor (hTfR) (Homo sapiens, UniProt P02786); experiment: SPR measurement under pH 6.0 conditions (Biacore T200, NTA chip, immobilized hTfR); type: binding; details: read-out: hTfR SPR pH6.0 KD
T1 sequence (P02786 whole entry): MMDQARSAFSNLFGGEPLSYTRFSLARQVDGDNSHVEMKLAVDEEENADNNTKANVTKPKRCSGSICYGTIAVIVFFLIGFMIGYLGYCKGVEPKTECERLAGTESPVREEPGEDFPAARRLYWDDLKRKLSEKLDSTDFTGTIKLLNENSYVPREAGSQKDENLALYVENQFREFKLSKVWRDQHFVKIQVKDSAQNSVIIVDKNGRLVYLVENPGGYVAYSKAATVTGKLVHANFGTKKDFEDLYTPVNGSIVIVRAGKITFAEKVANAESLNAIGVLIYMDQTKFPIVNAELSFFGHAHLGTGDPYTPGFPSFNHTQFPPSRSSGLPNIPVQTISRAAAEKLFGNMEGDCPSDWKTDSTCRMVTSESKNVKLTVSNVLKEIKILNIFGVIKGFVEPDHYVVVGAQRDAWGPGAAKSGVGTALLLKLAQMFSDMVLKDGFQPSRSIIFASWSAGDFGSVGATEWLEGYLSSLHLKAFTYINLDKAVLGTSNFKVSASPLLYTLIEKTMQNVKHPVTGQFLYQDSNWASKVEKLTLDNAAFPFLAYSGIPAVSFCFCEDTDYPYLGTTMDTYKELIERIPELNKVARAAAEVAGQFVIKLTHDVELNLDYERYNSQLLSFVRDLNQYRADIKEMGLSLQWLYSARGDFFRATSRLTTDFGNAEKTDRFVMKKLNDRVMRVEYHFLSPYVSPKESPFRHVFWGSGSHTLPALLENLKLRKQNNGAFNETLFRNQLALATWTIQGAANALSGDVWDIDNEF

[2] = target: T1, human transferrin receptor (hTfR); experiment: SPR measurement under pH 7.4 conditions (Biacore T200, CM3 chip, hTfR captured by His Tag antibody); type: binding; details: read-out: hTfR SPR pH7.4 KD
[3] = SPR, pH 6.0, peptide with the linker named in the table
[4] = SPR, pH 7.4, peptide with the linker named in the table

| SMILES | Kd [1, 3] | Kd [2, 4] | Kd ([1]; pH 6.0, single-cycle kinetics) | Kd ([2]; pH 7.4, single-cycle kinetics) | further results |
| --- | --- | --- | --- | --- | --- |
| CCC(CC)[C@@H]1NC(=O)[C@H](Cc2ccc(OCC(=O)O)cc2)NC(=O)[C@H](Cc2ccc(O)cc2)NC(=O)[C@H](CC(N)=O)NC(=O)[C@H](Cc2c[nH]c3ccccc23)NC(=O)[C@H](C(C)C)NC(=O)[C@H](Cc2cccc(Cl)c2)N(C)C(=O)[C@H](C(C)C)NC(=O)[C@H](C)NC(=O)CSC[C@@H](C(=O)NCCOCCOCCOCCOCCC(N)=O)NC(=O)[C@H](Cc2ccc(C(=O)O)cc2)N(C)C(=O)[C@H](Cc2cccc(C(=O)NCCOCCOCCOCCOCCC(=O)O)c2)NC(=O)[C@H](CCCNC(=N)N)NC(=O)[C@H](CCC(N)=O)NC(=O)[C@H]([C@@H](C)CC)NC1=O [compound 110] ({CH2CO}-AV[NMePhe(3-Cl)]VWNYY(Carboxymethyl)[Nva(3-Et)]IQR[X1](PEG4)[NMePhe(4-COOH)]C[PEG4]-NH2; thioether N-15) | 12.8 nM | 7.46 nM | – | – | – |
| CCC(CC)[C@@H]1NC(=O)[C@H](Cc2ccc(OCC(=O)N3CCN(CC(=O)O)CC3)cc2)NC(=O)[C@H](Cc2ccc(O)cc2)NC(=O)[C@H](CC(N)=O)NC(=O)[C@H](Cc2cn(CC(=O)O)c3ccccc23)NC(=O)[C@H](C(C)C)NC(=O)[C@H](Cc2cccc(Cl)c2)N(C)C(=O)[C@H](C(C)C)NC(=O)[C@H](C)NC(=O)CSC[C@@H](C(=O)NCCOCCOCCOCCOCCC(N)=O)NC(=O)[C@H](Cc2ccc(C(=O)O)cc2)N(C)C(=O)[C@H](Cc2cccc(C(=O)O)c2)NC(=O)[C@H](CCCCN2CCOCC2)NC(=O)[C@H](CCCCN2CCOCC2)NC(=O)[C@H]([C@@H](C)CC)NC1=O [compound 55] ({CH2CO}-AV[NMePhe(3-Cl)]V[Trp(1-CH2COOH)]NYY(CH2CON(CH2CH2)2NCH2COOH)[Nva(3-Et)]I[Nle(6-morpholino)][Nle(6-morpholino)][Phe(3-COOH)][NMePhe(4-COOH)]C[PEG4]-NH2; thioether N-15) | – | – | 38.5 nM | 26.4 nM | – |
| CC[C@H](C)[C@@H]1NC(=O)[C@H](Cc2ccc(O)cc2)NC(=O)[C@H](Cc2ccc(N)nc2)NC(=O)[C@H](CC(N)=O)NC(=O)[C@H](Cc2c[nH]c3ccccc23)N(C)C(=O)[C@H](C(C)C)NC(=O)[C@H](Cc2ccccc2)N(C)C(=O)[C@H](C(C)C)NC(=O)[C@H](C)NC(=O)CSC[C@@H](C(=O)NCC(=O)N[C@@H](CCCCN=[N+]=[N-])C(N)=O)NC(=O)[C@H](Cc2ccc(C(=O)O)cc2)N(C)C(=O)[C@H](Cc2ccc(O)cc2)NC(=O)[C@H](CCCNC(=N)N)NC(=O)[C@H](CCCCN)NC(=O)[C@H]([C@@H](C)CC)NC1=O [compound 196] ({CH2CO}-AV[NMeF]V[NMeW]N[3Pal(6-NH2)]YIIKRY[NMePhe(4-COOH)]CG[Lys(N3)]-NH2; thioether N-15) | – | – | – | – | Kd ([1]; SPR, pH 6.0, Table 1-3-2-2): 13.9 nM; Kd ([2]; SPR, pH 7.4, Table 1-3-2-2): 2.94 nM |
| CC[C@H](C)[C@@H]1NC(=O)[C@H](Cc2ccc(OC)cc2)NC(=O)[C@H](Cc2ccc(N)nc2)NC(=O)[C@H](CC(N)=O)NC(=O)[C@H](Cc2c[nH]c3ccccc23)N(C)C(=O)[C@H](C(C)C)NC(=O)[C@H](Cc2cccc(Cl)c2)N(C)C(=O)[C@H](C(C)C)NC(=O)[C@H](C)NC(=O)CSC[C@@H](C(=O)NCCOCCOCCOCCOCCC(N)=O)NC(=O)[C@H](Cc2ccc(C(=O)O)cc2)N(C)C(=O)[C@H](Cc2ccncc2)NC(=O)[C@H](CCCNC(=N)N)NC(=O)[C@H](CCCCN)NC(=O)[C@H]([C@@H](C)CC)NC1=O [compound 60] ({CH2CO}-AV[NMePhe(3-Cl)]V[NMeW]N[3Pal(6-NH2)]Y(Me)IIKR[4Pal][NMePhe(4-COOH)]C[PEG4]-NH2; thioether N-15) | – | – | 4.71 nM | 0.755 nM | – |
| CCC(CC)[C@@H]1NC(=O)[C@H](Cc2ccc(O)cc2)NC(=O)[C@H](Cc2ccc(O)cc2)NC(=O)[C@H](CC(N)=O)NC(=O)[C@H](Cc2c[nH]c3ccccc23)N(C)C(=O)[C@H](C(C)C)NC(=O)[C@H](Cc2ccccc2)N(C)C(=O)[C@H](C(C)C)NC(=O)[C@H](C)NC(=O)CSC[C@@H](C(=O)NCCOCCOCCOCCOCCC(N)=O)NC(=O)[C@H](Cc2ccc(O)cc2)N(C)C(=O)[C@H](Cc2cccc(C(=O)NCCOCCOCCOCCOCCC(=O)O)c2)NC(=O)[C@H](CCCNC(=N)N)NC(=O)[C@H](CCCCN)NC(=O)[C@H]([C@@H](C)CC)NC1=O [compound 120] ({CH2CO}-AV[NMeF]V[NMeW]NYY[Nva(3-Et)]IKR[X1](PEG4)[NMeY]C[PEG4]-NH2; thioether N-15) | 13.2 nM | 5.8 nM | – | – | – |
| CCC(CC)[C@@H]1NC(=O)[C@H](Cc2ccc(OCC(=O)O)cc2)NC(=O)[C@H](Cc2ccc(N)nc2)NC(=O)[C@H](CC(N)=O)NC(=O)[C@H](Cc2cn(CC(=O)O)c3ccccc23)NC(=O)[C@H](C(C)C)NC(=O)[C@H](Cc2cccc(Cl)c2)N(C)C(=O)[C@H](C(C)C)NC(=O)[C@H](C)NC(=O)CSC[C@@H](C(=O)NCCOCCOCCOCCOCCC(N)=O)NC(=O)[C@H](Cc2ccc(O)cc2)N(C)C(=O)[C@H](Cc2ccncc2)NC(=O)[C@H](CCCNC(=N)N)NC(=O)[C@H](CCC(=O)NCCOCCOCCOCCOCCOCCOCCOCCOC)NC(=O)[C@H]([C@@H](C)CC)NC1=O [compound 48] ({CH2CO}-AV[NMePhe(3-Cl)]V[Trp(1-CH2COOH)]N[3Pal(6-NH2)]Y(Carboxymethyl)[Nva(3-Et)]IE(NH(CH2CH2O)8Me)R[4Pal][NMeY]C[PEG4]-NH2; thioether N-15) | – | – | 536 nM | 111 nM | – |
| CCC(CC)[C@@H]1NC(=O)[C@H](Cc2ccc(OCC(=O)O)cc2)NC(=O)[C@H](Cc2ccc(N)nc2)NC(=O)[C@H](CC(N)=O)NC(=O)[C@H](Cc2cn(CC(=O)O)c3ccccc23)NC(=O)[C@H](C(C)C)NC(=O)[C@H](Cc2cccc(Cl)c2)N(C)C(=O)[C@H](C(C)C)NC(=O)[C@H](C)NC(=O)CSC[C@@H](C(=O)NCCOCCOCCOCCOCCC(N)=O)NC(=O)[C@H](Cc2ccc(C(=O)O)cc2)N(C)C(=O)[C@H](Cc2ccncc2)NC(=O)[C@H](CCCNC(=N)N)NC(=O)[C@H](CCC(=O)NCCOCCOCCOCCOCCOCCOCCOCCOC)NC(=O)[C@H]([C@@H](C)CC)NC1=O [compound 50] ({CH2CO}-AV[NMePhe(3-Cl)]V[Trp(1-CH2COOH)]N[3Pal(6-NH2)]Y(Carboxymethyl)[Nva(3-Et)]IE(NH(CH2CH2O)8Me)R[4Pal][NMePhe(4-COOH)]C[PEG4]-NH2; thioether N-15) | – | – | 1780 nM | 6500 nM | – |
| CCC(CC)[C@@H]1NC(=O)[C@H](Cc2ccc(OCC(=O)N3CCN(CC(=O)O)CC3)cc2)NC(=O)[C@H](Cc2ccc(O)cc2)NC(=O)[C@H](CC(N)=O)NC(=O)[C@H](Cc2cn(CC(=O)O)c3ccccc23)NC(=O)[C@H](C(C)C)NC(=O)[C@H](Cc2cccc(Cl)c2)N(C)C(=O)[C@H](C(C)C)NC(=O)[C@H](C)NC(=O)CSC[C@@H](C(=O)NCCOCCOCCOCCOCCC(N)=O)NC(=O)[C@H](Cc2ccc(C(=O)O)cc2)N(C)C(=O)[C@H](Cc2ccncc2)NC(=O)[C@H](CCCCN2CCOCC2)NC(=O)[C@H](CCCCN2CCOCC2)NC(=O)[C@H]([C@@H](C)CC)NC1=O [compound 56] ({CH2CO}-AV[NMePhe(3-Cl)]V[Trp(1-CH2COOH)]NYY(CH2CON(CH2CH2)2NCH2COOH)[Nva(3-Et)]I[Nle(6-morpholino)][Nle(6-morpholino)][4Pal][NMePhe(4-COOH)]C[PEG4]-NH2; thioether N-15) | – | – | 72 nM | 12.6 nM | – |
| CCC(CC)[C@@H]1NC(=O)[C@H](Cc2ccc(OCC(=O)O)cc2)NC(=O)[C@H](Cc2ccc(O)cc2)NC(=O)[C@H](CC(N)=O)NC(=O)[C@H](Cc2cn(CC(=O)O)c3ccccc23)NC(=O)[C@H](C(C)C)NC(=O)[C@H](Cc2cccc(Cl)c2)N(C)C(=O)[C@H](C(C)C)NC(=O)[C@H](C)NC(=O)CSC[C@@H](C(=O)NCCOCCOCCOCCOCCC(N)=O)NC(=O)[C@H](Cc2ccc(O)cc2)N(C)C(=O)[C@H](Cc2ccc(O)c(C)c2)NC(=O)[C@H](CCCNC(=N)N)NC(=O)[C@H](CCC(N)=O)NC(=O)[C@H]([C@@H](C)CC)NC1=O [compound 99] ({CH2CO}-AV[NMePhe(3-Cl)]V[Trp(1-CH2COOH)]NYY(Carboxymethyl)[Nva(3-Et)]IQR[Tyr(3-Me)][NMeY]C[PEG4]-NH2; thioether N-15) | 56.2 nM | 9.08 nM | – | – | – |
| CC[C@H](C)[C@@H]1NC(=O)[C@H](Cc2ccc(OCCNC(=O)N3CCN(CC(=O)O)CC3)cc2)NC(=O)[C@H](Cc2ccc(O)cc2)NC(=O)[C@H](CC(N)=O)NC(=O)[C@H](Cc2cn(CC(=O)O)c3ccccc23)NC(=O)[C@H](C(C)C)NC(=O)[C@H](Cc2cccc(Cl)c2)N(C)C(=O)[C@H](C(C)C)NC(=O)[C@H](C)NC(=O)CSC[C@@H](C(=O)NCCOCCOCCOCCOCCC(N)=O)NC(=O)[C@H](Cc2ccc(O)cc2)N(C)C(=O)[C@H](Cc2ccncc2)NC(=O)[C@H](CCCCN2CCOCC2)NC(=O)[C@H](CCC(=O)NCCOCCOCCOCCOCCOCCOCCOCCOC)NC(=O)[C@H]([C@@H](C)CC)NC1=O [compound 41] | – | – | 91.4 nM | 14.5 nM | – |
| CCC(CC)[C@@H]1NC(=O)[C@H](Cc2ccc(OCC(=O)O)cc2)NC(=O)[C@H](Cc2ccc(O)cc2)NC(=O)[C@H](CC(N)=O)NC(=O)[C@H](Cc2c[nH]c3ccccc23)NC(=O)[C@H](C(C)C)NC(=O)[C@H](Cc2cccc(Cl)c2)N(C)C(=O)[C@H](C(C)C)NC(=O)[C@H](C)NC(=O)CSC[C@@H](C(=O)NCCOCCOCCOCCOCCC(N)=O)NC(=O)[C@H](Cc2ccc(O)cc2)N(C)C(=O)[C@H](Cc2cccc(C(=O)NCCOCCOCCOCCOCCC(=O)O)c2)NC(=O)[C@H](CCCNC(=N)N)NC(=O)[C@H](CCC(N)=O)NC(=O)[C@H]([C@@H](C)CC)NC1=O [compound 112] ({CH2CO}-AV[NMePhe(3-Cl)]VWNYY(Carboxymethyl)[Nva(3-Et)]IQR[X1](PEG4)[NMeY]C[PEG4]-NH2; thioether N-15) | 11.5 nM | 3.53 nM | – | – | – |
